Measured values: the supplement of paper PMC11451515

Legend:
Assay in all cases: AUC of viability dose-response curve (% viability x log10 dose units); higher = less sensitive
Conditions in all cases: 48 h
P12-Ichikawa = system: P12-Ichikawa
Procedure, shortened: (§1)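 Library compounds in DMSO were applied for 48 h at 37°C at 11 threefold doses (47 μM to 0.79 nM) to medium-adapted leukemia cells in 1536-well plates holding 500 or 1000 cells/well. Luminescence from CellTiter-Glo One was normalised plate by plate against DMSO and cell-free wells. Area under the curve came from trapezoidal integration of a log-logistic fit, after scaling curves that rose above full viability and discarding those that failed quality control. The fit had four parameters and used log10 doses.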

NOMO1 = system: NOMO1
Procedure, shortened: as §1

SEM cells = system: SEM cells
Procedure, shortened: as §1

[1] = RPMI 5 mM glucose + 10% dialyzed FBS

Compound | AUC of viability dose-response curve (P12-Ichikawa; HPLM + 10% dialyzed FBS) | AUC of viability dose-response curve (P12-Ichikawa; RPMI 5 mM glucose + 10% FBS) | AUC of viability dose-response curve (P12-Ichikawa; [1]) | AUC of viability dose-response curve (NOMO1; HPLM + 10% dialyzed FBS) | AUC of viability dose-response curve (NOMO1; RPMI 5 mM glucose + 10% FBS) | AUC of viability dose-response curve (NOMO1; [1]) | AUC of viability dose-response curve (SEM cells; HPLM + 10% dialyzed FBS) | AUC of viability dose-response curve (SEM cells; RPMI 5 mM glucose + 10% FBS) | AUC of viability dose-response curve (SEM cells; [1])
N[S+](=O)([O-])OC[C@@H]1C[C@@H](n2ccc3c(N[C@H]4CCc5ccccc54)ncnc32)C[C@@H]1O | 373 | 352 | 352 | 319 | 300 | 313 | 352 | 346 | 339
CCOC(=O)Nc1ccc(NCc2ccc(F)cc2)nc1N | 456 | 451 | 464 | 439 | 469 | 469 | 467 | 466 | 461
CCOc1cc(CC(=O)N[C@@H](CC(C)C)c2ccccc2N2CCCCC2)ccc1C(=O)O | 365 | 373 | 387 | 327 | 310 | 337 | 459 | 432 | 436
COc1cc(O)c2c(c1)C(=O)c1cc(C)cc(O)c1C2=O | 451 | 454 | 446 | 416 | 451 | 446 | 427 | 399 | 414
NC/1=N/C(=O)N(/C=N1)[C@@H]2O[C@H](CO)[C@@H](O)[C@H]2O | 422 | 437 | 428 | 430 | 421 | 396 | 406 | 399 | 322
CC/1=C(/N2[C@H](SC1)[C@H](NC(=O)C(N)C3=CC=CC=C3)C2=O)C(O)=O (stereo partly specified) | 461 | 472 | 473 | 457 | 459 | 464 | 437 | 464 | 467
OCc1ccc(-c2ccc(-c3ccc(CO)s3)o2)s1 | 429 | 429 | 415 | 437 | 432 | 428 | 450 | 386 | 453
CC1(C)C(N(O)C(=O)Nc2ccc(Cl)cc2)N(c2ccc(Cl)cc2)C(=O)N1CC(=O)N/N=C/C=C/c1ccc([N+](=O)[O-])o1 (stereo unspecified) | 465 | 461 | 453 | 447 | 447 | 468 | 453 | 386 | 382
CC[C@]1(O)C[C@@H]2CN(CCc3c([nH]c4ccccc34)[C@@](C(=O)OC)(c3cc4c(cc3OC)N(C)[C@H]3[C@@](O)(C(N)=O)[C@H](O)[C@]5(CC)C=CCN6CC[C@]43[C@@H]65)C2)C1 | 231 | 218 | 263 | 223 | 259 | 278 | 250 | 217 | 258
CO/N=C(\C(=O)N[C@@H]1C(=O)N2C(C(=O)OCOC(=O)C(C)(C)C)=C(/C=C\c3scnc3C)CS[C@H]12)c1csc(N)n1 | 463 | 449 | 451 | 453 | 448 | 398 | 419 | 412 | 453
COc1cc(C)c(Sc2cnc(NC(=O)c3ccc(CNC(C)C(C)C)cc3)s2)cc1C(=O)N1CCN(C(C)=O)CC1 (stereo unspecified) | 448 | 418 | 443 | 430 | 460 | 445 | 386 | 436 | 425
O=C(/C=C/c1ccc(O)cc1)c1ccc(O)cc1O | 454 | 438 | 420 | 437 | 460 | 452 | 443 | 433 | 417
OCCn1cc(-c2cnc3nnn(Cc4ccc5ncccc5c4)c3n2)cn1 | 457 | 455 | 459 | 440 | 471 | 456 | 430 | 389 | 430
O=C1NC(=O)/C(=C/c2ccc(-c3ccc(F)cc3O)o2)S1 | 447 | 420 | 427 | 430 | 443 | 422 | 445 | 419 | 427
OC1=CC2=C(C(=C1)O)C(=O)\C(=C(/O2)C3=CC(=C(O)C=C3)O)O | 469 | 471 | 469 | 459 | 465 | 469 | 454 | 470 | 454
Cc1ccc2c(c1)c1c(n2CCc2ccc(C)nc2)CCN(C)C1 | 459 | 465 | 469 | 447 | 458 | 472 | 472 | 471 | 474
CNC(=O)[C@H](CC/1=C/N=C\2/C=C\C\C=C12)NC(=O)[C@H](CC(C)C)CC(=O)NO | 425 | 423 | 423 | 400 | 413 | 418 | 471 | 462 | 465

Compound | AUC of viability dose-response curve (P12-Ichikawa; HPLM + 10% dialyzed FBS) | AUC of viability dose-response curve (P12-Ichikawa; RPMI 5 mM glucose + 10% FBS) | AUC of viability dose-response curve (P12-Ichikawa; [1]) | AUC of viability dose-response curve (NOMO1; HPLM + 10% dialyzed FBS) | AUC of viability dose-response curve (NOMO1; RPMI 5 mM glucose + 10% FBS) | AUC of viability dose-response curve (NOMO1; [1]) | AUC of viability dose-response curve (SEM cells; HPLM + 10% dialyzed FBS) | AUC of viability dose-response curve (SEM cells; RPMI 5 mM glucose + 10% FBS) | AUC of viability dose-response curve (SEM cells; [1])
CNC(=O)C1=CC=C(C)C(=C1)N2C(=C/C(=C(/Br)C2=O)OCC3=C(F)C=C(F)C=C3)\C | 474 | 466 | 464 | 465 | 456 | 466 | 461 | 465 | 455
CC/1=C(\O)C(=O)\C=C2/C1=C/C=C3\[C@@]2(C)CC[C@@]4(C)[C@@H]5C[C@@](C)(CC[C@]5(C)CC[C@]34C)C(O)=O | 386 | 360 | 346 | 366 | 360 | 363 | 362 | 355 | 341
COC(=O)\C1=C\CCN(C)C1 | 446 | 470 | 468 | 473 | 448 | 466 | 473 | 473 | 477
CCOC(=O)/C=C/[C@H](C[C@@H]1CCNC1=O)NC(=O)[C@@H](CC(=O)[C@@H](NC(=O)c1cc(C)on1)C(C)C)Cc1ccc(F)cc1 | 466 | 459 | 450 | 471 | 469 | 440 | 452 | 463 | 454
Nc1ncnc2c1c(-c1cccc(OCc3ccccc3)c1)cn2C1CC(CN2CCCC2)C1 (stereo unspecified) | 463 | 466 | 465 | 411 | 441 | 423 | 388 | 414 | 405
COc1ncc(-c2ccc3c(Nc4cc(Oc5cc(F)cc(F)c5)cc(C(=O)O)c4)c([S+](=O)([O-])NC4CC4)cnc3c2)c(OC)n1 | 433 | 405 | 401 | 442 | 440 | 428 | 387 | 457 | 414
CCOC(=O)\C1=C\[C@@H](OC(CC)CC)[C@H](NC(C)=O)[C@@H](N)C1 | 463 | 460 | 419 | 440 | 450 | 454 | 416 | 432 | 414
COc1cccc2c1CCCC2CCCN1CCN(C2CCCCC2)CC1 (stereo unspecified) | 469 | 459 | 460 | 462 | 457 | 450 | 427 | 428 | 454
C[C@]12CC[C@H]3[C@@H](CCC/4=C/C(=O)CC[C@]34C)[C@@H]1CC[C@@H]2OC(=O)CCC5CCCC5 | 448 | 459 | 466 | 461 | 471 | 464 | 452 | 463 | 462
c1ccc(-c2oc3ncnc(NC[C@@H]4CCCO4)c3c2-c2ccccc2)cc1 | 461 | 454 | 455 | 454 | 467 | 454 | 468 | 463 | 467
CCN(c1ccccc1)c1cc(NC)[n+](C)c(C)n1 | 469 | 457 | 470 | 456 | 471 | 468 | 464 | 466 | 475
NC(=O)c1ncn([C@@H]2O[C@H](CO)[C@@H](O)[C@H]2O)c1O | 464 | 463 | 464 | 465 | 468 | 460 | 473 | 474 | 457
CN1CCN(CCOc2cc(OC3CCOCC3)c3c(Nc4c(Cl)ccc5c4OCO5)ncnc3c2)CC1 | 410 | 446 | 429 | 428 | 463 | 459 | 416 | 378 | 391
COc1cc(C(=O)NS(=O)(=O)c2ccccc2C)ccc1Cc1cn(C)c2ccc(NC(=O)OC3CCCC3)cc12 | 411 | 380 | 383 | 371 | 378 | 384 | 323 | 338 | 319
CCOc1ccc(Cc2cc([C@@H]3O[C@H](CO)[C@@H](O)[C@H](O)[C@H]3O)ccc2Cl)cc1 | 459 | 466 | 469 | 470 | 464 | 476 | 465 | 450 | 468
COc1cc(CNC(=O)CCCC/C=C/C(C)C)ccc1O | 287 | 322 | 305 | 380 | 368 | 399 | 343 | 310 | 329
NC(=O)NO | 401 | 393 | 367 | 359 | 340 | 347 | 326 | 362 | 332
